# Results as given in patent US11191820B2, “Method for inducing early T memory response with short peptides anti-tumor vaccine” (OSE IMMUNOTHERAPEUTICS, priority 2015, dated 2021).
# How the values were obtained:
# Assay type in all cases: in vivo, human
# [1] = test system: central memory T cells; assay: Cultured IFN-γ ELISPOT after 10-day in vitro stimulation of PBMC, phase 1/2 colon cancer trial of OSE-2101; design: key to net SFC of vaccine positive CTL responses: —, indicates SFC response did not meet criteria and vaccine response was negative; settings: for Mean SFC: 10 colon patients
# Experimental: (§1) Clinical study design. Both trials were designed as phase 1/2, open label, multi-center, single dose, multiple administration studies to evaluate the safety and immunogenicity of the OSE-2101 immunotherapy. Patients were treated with 1 ml OSE-2101 every 3 weeks for a total of six doses. Each dose was administered subcutaneously in the same vicinity in the deltoid or upper thigh region, or at a contralateral site if local side-effects were observed. The study duration for each completed patient was 18 weeks. Clinical responses or patient survival were not measured in either phase 1/2 studies.
# (§2) Clinical sample processing. Blood or leukapheresis product was obtained from patients at the pre-treatment, the Week 9 and Week 18 time points, 3 weeks after the third and sixth dose of OSE-2101 respectively. Peripheral blood mononuclear cells (PBMC) were isolated from samples within 24 hours of collection using a FICOLL-PAQUE density gradient and cryopreserved in containers designed to ensure optimal freezing (Mr. Frosty, Nalgene). For use, cells were rapidly thawed at 37° C. then transferred to human AB serum-containing medium for work-up.
# (§3) Measurement of central T memory cells responses and T effector memory cells. The CTL responses in 16 total patients (10 colon and six NSCLC) were monitored for CTL responses against each epitope and against the wild-type epitope of epitopes analogs. For each patient, the pre-treatment, Week 9 and Week 18 time points were batch-tested in the same experiment to allow pre- versus post-treatment response comparison in the same experiment. Central T memory cells responses were measured using an IFN-γ enzyme-linked immunospot (cultured ELISPOT) assay following in vitro stimulation of PBMC for 10 days with each vaccine epitope. Briefly, PBMC from each time point were stimulated on day 0 with 10 μg/ml of each epitope individually in replicate in 48-well culture plates (2×10^6 PBMC/well). All cultures were fed with rIL-2 (Endogen, Woburn, Mass.; 10 U/ml final concentration) on days 1, 4 and 7. Ten days after initiation of culture, cells were harvested and tested for activity against specific vaccine peptides and corresponding wild-type peptides of vaccine analogs in the T memory ELISPOT assay. Cells were tested in Millipore IP 96-well plates pre-coated with mouse anti-human IFN-γ antibody (Mabtech USA, Cincinnati, Ohio). Five×10^4 cells and 1.25×10^4 cells from each culture were plated in triplicate wells together with 10^5 irradiated autologous PBMC and 10 μg/ml peptide. As a control, CTL were also tested against an irrelevant HLA-A2.1-binding HBV peptide. After 20 hours incubation, T memory ELISPOT plates were developed by performing sequential incubations with biotinylated anti-human IFN-γ antibody (Mabtech USA), Avidin-Peroxidase Complex (APC, Vector Laboratories, Burlingame, Calif.), and 3-amino-9-ethyl carbazole (AEC) substrate (Sigma Aldrich, St. Louis, Mo.). Spot-forming cells (SFC) were enumerated using a computer-assisted image analysis system (Zeiss KS ELISPOT Reader, Carl Zeiss MicroImaging, Thornwood, N.J.). Data is reported as the net SFC per 5×10^4 cells after subtracting spots induced with the irrelevant HBV peptide.
# [2] = test system: central memory T cells; assay: Cultured IFN-γ ELISPOT after 10-day in vitro stimulation of PBMC, phase 1/2 NSCLC trial of OSE-2101; design: key to net SFC of vaccine positive CTL responses: —, indicates SFC response did not meet criteria and vaccine response was negative; settings: for Mean SFC / No. Positive Responses: 6 NSCLC patients
# Experimental: as §1, §2, §3
# [3] = test system: central memory T cells; assay: Central memory T cell cultured ELISPOT, phase 2 trial in advanced NSCLC
# Experimental: CTL Immune responses measured though cultured Elispot. The immunogenicity was measured in Phase 2 clinical trial on cryopreserved PBMC from each test sample were thawed in 5% human culture medium (RPMI-1640 medium with 25 mM HEPES, supplemented with 5% human AB serum, 4 mM L-glutamine, 0.5 mM sodium pyruvate, 0.1 mM MEM non-essential amino acids, 100 μg/ml streptomycin, and 100 U/ml penicillin) containing 30 μg/ml DNAase. After centrifugation for 5 minutes at 1200 rpm, the cell pellets were resuspended in 5% human culture medium and washed 2 times. For the central Memory T cell cultured ELISPOT assay, 2×10^6/ml PBMC were placed in replicate wells in a 48-well plates and stimulated for 10 days with 10 μg/ml of each peptide. As a positive control, PBMC were also stimulated with a pool of recall viral peptides. Human rIL2 (10 U/ml) was added to the peptide-stimulated cultures at day 1, day 4 and day 7. After 10 days the stimulated cells were harvested and plated at a concentration of 5×10^4/well. Assay wells also received irradiated autologous PBMC (1×10^5/well) and 10 μg/ml peptide, either the vaccine peptide, irrelevant peptide or positive control peptides. Cells stimulated in vitro with each analog epitope were also tested against the corresponding wild-type epitope.
# Data analysis and acceptance criteria. Mean and standard deviation (SD) of spots in replicate wells were calculated in all assays by transferring raw ELISPOT data from each experiment to an Excel-based computer program. Positive vaccine-induced T-cell responses were determined according to the criteria described below.
# Acceptance Criteria for peptide-Induced specific T-cell response through central memory T cells: The positive criteria for CTL responses used in the phase 2 trial was identical to the criteria in the phase 1/2 trials which was established prospectively after analyzing the variability of pre-treatment responses in patients against each vaccine epitope and the irrelevant HBV control epitope. A positive peptide-induced CTL/T memory response to a given epitope met all of the following conditions: 1) was greater than 5 SFC above the irrelevant epitope response, 2) was greater than the mean SFC of the irrelevant epitope response, plus 2 SD, and 3) was two-fold greater than the SFC response in the pre-vaccination sample from the same patient, plus 2 SD. The inclusion of “plus two standard deviations” was used to accommodate the assay variability and served to increase the criteria stringency.
sequence,measurement,setting,value
KLBPVQLWV [p53.139L2B3 A],Mean SFC,[1]; Week 9,"70.5 SFC per 50,000 cells"
same,Mean SFC,[1]; Week 18,"89.4 SFC per 50,000 cells"
same,net SFC of vaccine positive CTL responses,"[1]; colon patient 551, Week 9",—
same,net SFC of vaccine positive CTL responses,"[1]; colon patient 551, Week 18",—
same,net SFC of vaccine positive CTL responses,"[1]; colon patient 601, Week 9","129.0 SFC per 50,000 cells"
same,net SFC of vaccine positive CTL responses,"[1]; colon patient 601, Week 18","96.0 SFC per 50,000 cells"
same,net SFC of vaccine positive CTL responses,"[1]; colon patient 602, Week 9",—
same,net SFC of vaccine positive CTL responses,"[1]; colon patient 602, Week 18","22.7 SFC per 50,000 cells"
same,net SFC of vaccine positive CTL responses,"[1]; colon patient 603, Week 9","85.3 SFC per 50,000 cells"
same,net SFC of vaccine positive CTL responses,"[1]; colon patient 603, Week 18",—
same,net SFC of vaccine positive CTL responses,"[1]; colon patient 604, Week 9","41.0 SFC per 50,000 cells"
same,net SFC of vaccine positive CTL responses,"[1]; colon patient 604, Week 18","188.7 SFC per 50,000 cells"
same,net SFC of vaccine positive CTL responses,"[1]; colon patient 605, Week 9","9.7 SFC per 50,000 cells"
same,net SFC of vaccine positive CTL responses,"[1]; colon patient 605, Week 18","44.7 SFC per 50,000 cells"
same,net SFC of vaccine positive CTL responses,"[1]; colon patient 606, Week 9","43.7 SFC per 50,000 cells"
same,net SFC of vaccine positive CTL responses,"[1]; colon patient 606, Week 18","37.7 SFC per 50,000 cells"
same,net SFC of vaccine positive CTL responses,"[1]; colon patient 607, Week 9","114.3 SFC per 50,000 cells"
same,net SFC of vaccine positive CTL responses,"[1]; colon patient 607, Week 18","146.7 SFC per 50,000 cells"
same,net SFC of vaccine positive CTL responses,"[1]; colon patient 608, Week 9",—
same,net SFC of vaccine positive CTL responses,"[1]; colon patient 608, Week 18",—
same,net SFC of vaccine positive CTL responses,"[1]; colon patient 609, Week 9",—
same,net SFC of vaccine positive CTL responses,"[1]; colon patient 609, Week 18",—
same,Mean SFC,[2]; Week 9,"25.9 SFC per 50,000 cells"
same,No. Positive Responses,[2]; Week 9,3
same,Mean SFC,[2]; Week 18,"62.0 SFC per 50,000 cells"
same,No. Positive Responses,[2]; Week 18,4
same,net SFC of vaccine positive CTL responses,"[2]; NSCLC patient 201, Week 9",—
same,net SFC of vaccine positive CTL responses,"[2]; NSCLC patient 201, Week 18",—
same,net SFC of vaccine positive CTL responses,"[2]; NSCLC patient 502, Week 9",—
same,net SFC of vaccine positive CTL responses,"[2]; NSCLC patient 502, Week 18",—
same,net SFC of vaccine positive CTL responses,"[2]; NSCLC patient 504, Week 9","18.7 SFC per 50,000 cells"
same,net SFC of vaccine positive CTL responses,"[2]; NSCLC patient 504, Week 18","90.3 SFC per 50,000 cells"
same,net SFC of vaccine positive CTL responses,"[2]; NSCLC patient 505, Week 9",—
same,net SFC of vaccine positive CTL responses,"[2]; NSCLC patient 505, Week 18","20.3 SFC per 50,000 cells"
same,net SFC of vaccine positive CTL responses,"[2]; NSCLC patient 532, Week 9","53.0 SFC per 50,000 cells"
same,net SFC of vaccine positive CTL responses,"[2]; NSCLC patient 532, Week 18","117.3 SFC per 50,000 cells"
same,net SFC of vaccine positive CTL responses,"[2]; NSCLC patient 651, Week 9","6.0 SFC per 50,000 cells"
same,net SFC of vaccine positive CTL responses,"[2]; NSCLC patient 651, Week 18","20.0 SFC per 50,000 cells"
same,% of patients with positive CTL/central memory T cell response,"[3]; phase 2, month 9",29%
same,patients with positive CTL/central memory T cell response / patients tested,"[3]; phase 2, month 9",2/7
same,% of patients with positive CTL/central memory T cell response,"[3]; phase 2, month 12",50%
same,patients with positive CTL/central memory T cell response / patients tested,"[3]; phase 2, month 12",2/4
same,% of patients with positive CTL/central memory T cell response,"[3]; phase 2, week 9",55%
same,patients with positive CTL/central memory T cell response / patients tested,"[3]; phase 2, week 9",6/11
same,% of patients with positive CTL/central memory T cell response,"[3]; phase 2, week 18",36%
same,patients with positive CTL/central memory T cell response / patients tested,"[3]; phase 2, week 18",4/11
same,% of patients with positive CTL/central memory T cell response,"[3]; phase 2, week 30",50%
same,patients with positive CTL/central memory T cell response / patients tested,"[3]; phase 2, week 30",3/6
RLLQETELV [HER2-689-WT],% of patients with positive CTL/central memory T cell response,"[3]; phase 2, month 9",0%
same,patients with positive CTL/central memory T cell response / patients tested,"[3]; phase 2, month 9",0/7
same,% of patients with positive CTL/central memory T cell response,"[3]; phase 2, month 12",0%
same,patients with positive CTL/central memory T cell response / patients tested,"[3]; phase 2, month 12",0/4
same,% of patients with positive CTL/central memory T cell response,"[3]; phase 2, week 9",36%
same,patients with positive CTL/central memory T cell response / patients tested,"[3]; phase 2, week 9",4/11
same,% of patients with positive CTL/central memory T cell response,"[3]; phase 2, week 18",27%
same,patients with positive CTL/central memory T cell response / patients tested,"[3]; phase 2, week 18",3/11
same,% of patients with positive CTL/central memory T cell response,"[3]; phase 2, week 30",0%
same,patients with positive CTL/central memory T cell response / patients tested,"[3]; phase 2, week 30",0/6
